Like-named read-outs stand apart in the source and are kept apart here. Blank lines part the entries; values can stand above or below the compound they belong to.
What was measured:
in vivo = experiment: in vivo
Method: The LC-MS analysis was conducted using a Waters Acquity UPLC I-Class system (Waters, USA) coupled with a Xevo TQ-XS mass spectrometer equipped with a heated electrospray ionization source. Chromatographic separation was carried out on an Acquity UPLC HSS T3 C18 column (2.1 mm × 50 mm, 1.8 μm) from Waters, USA, with a flow rate of 0.4 mL/min and a column oven temperature of 40°C. The mobile phase consisted of 0.1% aqueous formic acid (A) and acetonitrile (B). The gradient elution program was as follows: 0–2.0 min, 10%–60% B; 2.0–2.2 min, 60%–95% B; 2.2–3.2 min, 95% B; 3.2–3.5 min, 95%–10% B; and 3.5–5.5 min, 10% B. Mass spectrometric detection was conducted using both positive and negative ionization modes. The source parameters used were as follows: a spray voltage of 1.00 KV, capillary temperature set at 500°C, desolvation flow maintained at 1000 L/h, cone gas (nitrogen) flow at 150 L/h, and a cone voltage of 5 V. The collision energy and precursor to production transition m/z for each analyte are found in Table 1. The data acquisition was performed in multiple reaction monitoring (MRM) mode.
Subsequently, a volume of 400 μL of acetonitrile was added to a 100 μL plasma sample. The resulting mixture was subjected to vortexing for 1 minute and centrifuged at a force of 21367 g for 10 minutes at a temperature of 4°C. The resulting supernatant was subjected to evaporation, followed by reconstitution in a volume of 100 μL of 10% acetonitrile. This reconstituted solution was then centrifuged at a force of 21367 g, and subsequently, a volume of 4 μL of the resulting supernatant was used for UPLC-ESI-MS/MS analysis.
The study used six Bama miniature pigs (70 days old, weighing 20 ± 2 kg) obtained from the Experimental Animal Center, Shandong Lvdu Bio-Sciences and Technology Co., Ltd. (Binzhou, China). The pigs were housed under controlled conditions with a temperature of 25 ± 1°C, relative humidity of 65% ± 10%, and a 12/12 h light/dark cycle. The pigs were provided with standard pig feed and water ad libitum, in accordance with the guidelines outlined in the National Institutes of Health Guide for Care and Use of Laboratory Animals. […] Blood samples (0.5 mL each) were collected from the jugular vein of each pig into heparinized tubes at specific time intervals (0.5 h, 1.0 h, 4.0 h, 8.0 h, 12.0 h, 15.0 h, and 24.0 h) following intragastric administration. The blood sample was promptly subjected to centrifugation at a force of 3400 × g for 10 minutes. The resulting supernatant plasma was collected and preserved at a temperature of −80°C until subsequent preparation for LC-MS analysis. The concentration-time data of the analytes were evaluated using either noncompartmental or compartmental methods with the aid of the PKSolver 2.0 software package, and subsequently, pharmacokinetic parameters were computed. The outcomes are presented as the arithmetic mean accompanied by the standard deviation (SD).

[1] = set-up: method as in PMID 28871816; conditions: rats, cited from earlier work
[2] = set-up: method as in PMID 10891884; conditions: beagle dogs, oral 300 mg of palmatine; cited from earlier work
[3] = set-up: method as in PMID 33217008; conditions: rats, oral 10 mg/kg obacunone; cited from earlier work
[4] = set-up: method as in PMID 34331552; conditions: rats, fruit of Tetradium ruticarpum and licorice extracts together; cited from earlier work
[5] = Bama miniature, pig, in vivo, po
[6] = Bama miniature, pig, in vivo, po, C max
[7] = pig plasma, oral BTWD 1.0 mL/kg
[8] = pig plasma, single oral BTWD 1.0 mL/kg, n = 6, mean ± SD
[9] = Bama miniature, pig, in vivo, po, 1 mL/kg
[10] = Bama miniature, pig, plasma, po, 1 mL/kg
[11] = Bama miniature, pig, plasma, po, 1 mL/kg, C max, pig plasma, single oral BTWD 1.0 mL/kg, n = 6, mean ± SD

- concentration at 12 h (in vivo; [5]): 5.79 ng/mL
Compound: COc1cc2c(cc1OC)-c1cc3ccc(OC)c(OC)c3c[n+]1CC2 [palmatine]
- Cmax ([1]; oral Coptis root granules): 2.14 ± 0.68 ng/mL
- Tmax ([1]; oral Coptis root granules): 0.36 ± 0.074 h
- Cmax ([1]; oral Shuanghua Baihe tablets): 2.50 ± 0.43 ng/mL
- Tmax ([1]; oral Shuanghua Baihe tablets): 3.22 ± 0.81 h
- plasma concentration (in words) (in vivo; pig, in vivo, po): below the threshold required for the analysis of PK behavior
- Cmax [2]: 8 ng/mL
- Tmax [2]: 5 h

- AUC0− inf (in vivo; pig, in vivo, po): 73.39 ± 2.80 ng·h/mL
- AUC0−t (in vivo; pig, in vivo, po): 69.72 ± 2.62 ng·h/mL
- C max (in vivo; pig, in vivo, po): 8.18 ± 0.21 ng/mL
- CL/F (in vivo; pig, in vivo, po): 12.41 ± 0.47 mL/h
- Cmax (in words) (in vivo; pig, in vivo, po): low Cmax
- MRT (in vivo; pig, in vivo, po): 11.39 ± 0.14 h
- T max (in vivo; pig, in vivo, po): 12.00 h
- concentration-time profile (shape) (in vivo; pig, in vivo, po): biphasic patterns
- plasma concentrations (in vivo; pig, in vivo, po): below 10.0 ng/mL
- t 1/2 (in vivo; pig, in vivo, po): 3.81 ± 0.10 h
Compound: COc1cc2c(cc1O)C[C@H]1c3cc(O)c(OC)cc3CC[N@@+]1(C)C2 [Phellodendrine, phellodendrine]

- AUC(0-inf) (in vivo; [5]): 53.5 ± 2.78 ng·h/mL
- AUC(0-t) (in vivo; [5]): 53.2 ± 2.7 ng·h/mL
- MRT (in vivo; [5]): 1.07 ± 0.04 h
- Tmax (in vivo; [5]): 0.53 ± 0.02 h
- half-life (in vivo; [5]): 0.36 ± 0.01 h
- Cmax (in vivo; [6]): 36.8 ± 0.48 ng/mL
- CL/F (in vivo; [8]): 36.38 ± 1.84 mL/h
Compound: COc1cc2ccc(=O)oc2c(O[C@@H]2O[C@H](CO)[C@@H](O)[C@H](O)[C@H]2O)c1O [Fraxin, fraxin]
- absorption and elimination (in words) (in vivo; pig plasma, oral BTWD): rapidly absorbed and eliminated from the plasma

- AUC(0-inf) (in vivo; [5]): 69.8 ± 1.42 ng·h/mL
- AUC(0-t) (in vivo; [5]): 59.88 ± 0.15 ng·h/mL
- MRT (in vivo; [5]): 14.3 ± 0.31 h
- Tmax (in vivo; [5]): 12 h
- half-life (in vivo; [5]): 5.7 ± 0.33 h
- plasma concentrations (in vivo; [5]): below 10.0 ng/mL
- Cmax (in vivo; [6]): 5.9 ± 0.15 ng/mL
- CL/F (in vivo; pig, in vivo, po): 6.56 ± 0.14 mL/h
- Cmax (in words) (in vivo; pig, in vivo, po): low Cmax
- concentration-time profile (shape) (in vivo; pig, in vivo, po): biphasic patterns
Compound: c1c2c(cc3c1OCO3)-c1cc3ccc4c(c3c[n+]1CC2)OCO4 [Coptisine chloride, coptisine chloride]

- AUC0− inf (in vivo; [5]): 1146.51 ± 7.38 ng·h/mL
- AUC(0-t) (in vivo; [5]): 111 ± 3.9 ng·h/mL
- MRT (in vivo; [5]): 17.4 ± 3 h
- Tmax (in vivo; [5]): 3.49 ± 0.07 h
- half-life (in vivo; [5]): 0.88 ± 0.15 h
- Cmax (in vivo; [6]): 7.39 ± 0.71 ng/mL
- CL/F (in vivo; pig, in vivo, po): 0.37 ± 0.02 mL/h
- Cmax (in words) (in vivo; pig, in vivo, po): low Cmax
Compound: CC1(C)OC(=O)C=C[C@]2(C)[C@H]3CC[C@@]4(C)[C@H](c5ccoc5)OC(=O)[C@H]5O[C@]54[C@]3(C)C(=O)C[C@@H]12 [Obacunone, obacunone]
- MRT [3]: 4.30 ± 0.16 h
- Tmax [3]: 1 to 2 h
- MRT [4]: 4.90 ± 2.60 h
- Tmax [4]: 1.67 ± 0.29 h

Second part, the compound before the results:

Compound: COc1ccc2cc3[n+](cc2c1OC)CCc1cc2c(cc1-3)OCO2 [Berberine, berberine]
- AUC(0-inf) (in vivo; [5]): 209 ± 13.6 ng·h/mL
- AUC(0-t) (in vivo; [5]): 202 ± 12.7 ng·h/mL
- MRT (in vivo; [5]): 11.07 ± 0.03 h
- Tmax (in vivo; [5]): 12 h
- half-life (in vivo; [5]): 3.14 ± 0.13 h
- Cmax (in vivo; [6]): 28.4 ± 0.83 ng/mL
- Cmax (in words) (in vivo; pig plasma, oral BTWD): low Cmax
- concentration-time profile (shape) (in vivo; [7]): biphasic patterns
- CL/F (in vivo; [8]): 14.82 ± 0.93 mL/h

Compound: COc1cc2ccc(=O)oc2c(O)c1O [Fraxetin, fraxetin]
- AUC(0-inf) (in vivo; [5]): 159 ± 9.33 ng·h/mL
- AUC(0-t) (in vivo; [5]): 159 ± 9.33 ng·h/mL
- MRT (in vivo; [5]): 0.98 ± 0.01 h
- Tmax (in vivo; [5]): 0.49 ± 0.01 h
- half-life (in vivo; [5]): 0.33 h
- Cmax (in vivo; [6]): 119 ± 6.14 ng/mL
- absorption and elimination (in words) (in vivo; pig plasma, oral BTWD): rapidly absorbed and eliminated from the plasma
- concentration-time profile (shape) (in vivo; [7]): biphasic patterns
- CL/F (in vivo; [8]): 9.72 ± 0.56 mL/h

Compound: O=c1ccc2cc(O[C@@H]3O[C@H](CO)[C@@H](O)[C@H](O)[C@H]3O)c(O)cc2o1 [Esculin, esculin]
- AUC(0-inf) (in vivo; [9]): 876 ± 124 ng·h/mL
- AUC(0-t) (in vivo; [9]): 531 ± 52.8 ng·h/mL
- Cmax (in vivo; [9]): 66.4 ± 1.91 ng/mL
- MRT (in vivo; [9]): 25.1 ± 1.91 h
- Tmax (in vivo; [9]): 1 h
- half-life (in vivo; [9]): 16.6 ± 1.48 h
- concentration-time profile (shape) (in vivo; [7]): biphasic patterns
- CL/F (in vivo; [8]): 3.25 ± 0.43 mL/h

Compound: C=C(C)[C@@H]1CC[C@]2(C(=O)O[C@@H]3O[C@H](CO[C@@H]4O[C@H](CO)[C@@H](O[C@@H]5O[C@@H](C)[C@H](O)[C@@H](O)[C@H]5O)[C@H](O)[C@H]4O)[C@@H](O)[C@H](O)[C@H]3O)CC[C@]3(C)[C@H](CC[C@@H]4[C@@]5(C)CC[C@H](O[C@@H]6OC[C@H](O)[C@H](O)[C@H]6O[C@@H]6O[C@@H](C)[C@H](O)[C@@H](O)[C@H]6O)[C@@](C)(CO)[C@@H]5CC[C@]43C)[C@@H]12 [Pulchinenoside B4, pulchinenoside B4]
- absorption and elimination (in words) (in vivo; pig plasma, oral BTWD): rapidly absorbed and eliminated from the plasma
- concentration-time profile (shape) (in vivo; [7]): biphasic patterns
- AUC0− inf (in vivo; [8]): 2580.65 ± 89.09 ng·h/mL
- AUC0−t (in vivo; [8]): 2525.63 ± 87.16 ng·h/mL
- C max (in vivo; [8]): 276.70 ± 10.54 ng/mL
- CL/F (in vivo; [8]): 1.36 ± 0.05 mL/h
- MRT (in vivo; [8]): 9.57 ± 0.14 h
- T max (in vivo; [8]): 1.00 h
- t 1/2 (in vivo; [8]): 3.27 ± 0.17 h

Compound: COc1cc2c(cc1O)-c1cc3ccc(OC)c(OC)c3c[n+]1CC2 [Columbamine, columbamine]
- AUC(0-inf) (in vivo; [10]): 31 ± 1.36 ng·h/mL
- AUC(0-t) (in vivo; [10]): 28.4 ± 1.31 ng·h/mL
- MRT (in vivo; [10]): 12.5 ± 2.8 h
- Tmax (in vivo; [10]): 12 h
- half-life (in vivo; [10]): 6.74 ± 5.08 h
- Cmax (in vivo; [11]): 3.8 ± 0.08 ng/mL
- Cmax (in words) (in vivo; pig plasma, oral BTWD): low Cmax
- concentration-time profile (shape) (in vivo; [7]): biphasic patterns
- plasma concentrations (in vivo; pig plasma, oral BTWD 1.0 mL/kg, upper bound stated in text): below 10.0 ng/mL
- CL/F (in vivo; [8]): 17.54 ± 0.76 mL/h

Compound: O=c1ccc2cc(O)c(O)cc2o1 [Esculetin, esculetin]
- AUC(0-inf) (in vivo; [10]): 994 ± 27.8 ng·h/mL
- AUC(0-t) (in vivo; [10]): 980 ± 26.4 ng·h/mL
- MRT (in vivo; [10]): 8.97 ± 0.08 h
- Tmax (in vivo; [10]): 4 h
- half-life (in vivo; [10]): 2.91 ± 0.08 h
- Cmax (in vivo; [11]): 78.1 ± 1.68 ng/mL
- concentration-time profile (shape) (in vivo; [7]): biphasic patterns
- C max (in vivo; [8]): 78.17 ± 1.68 ng/mL
- CL/F (in vivo; [8]): 0.76 ± 0.02 mL/h
